From patent publication US11932606B2, “Anti-cancer/anti-fibrosis compounds” (THE REGENTS OF THE UNIVERSITY OF CALIFORNIA, priority 2017, dated 2024)

Columns and labels:
Assay in all cases: Cell viability assay (CellTiter-Glo, day 7)
Assay type in all cases: cell-based
A204 = conditions: Homo sapiens, 168 h; A204, day 7
Procedure: (§1) CLL-119, Hela, HCT116, MCF7, Colo205, SW620, H2052, MSTO-211H, U-251, Colo 357, OE33, Huh-7, A549, BT474, A204 and H290 cells were acquired from UCSF Cell and Genome Engineering Core. A549-Brm3 and H2030-Brm3 were from UCSF thoracic oncology lab. All cells were plated (96-well) in triplicate at 500 cells per well for testing (n=3) with compound. Medium was changed once on day 3. On day 7, the CellTiter-Glo Luminescent Cell Viability Assay (Promega) was performed to measure the response. For cell viability assay, two independent experiments have been done.

A549-BRM3 = conditions: 168 h; A549-BRM3, day 7
Procedure: as §1

A549 = conditions: Homo sapiens, 168 h; A549, day 7
Procedure: as §1

BT474 = conditions: Homo sapiens, BT-474, 168 h; BT474, day 7
Procedure: as §1

CLL-119 = conditions: 168 h; CLL-119, day 7
Procedure: as §1

Colo205 = conditions: Homo sapiens, COLO 205, 168 h; Colo205, day 7
Procedure: as §1

Colo357 = conditions: Homo sapiens, 168 h; Colo357, day 7
Procedure: as §1

H2030-BRM3 = conditions: 168 h; H2030-BRM3, day 7
Procedure: as §1

H2052 = conditions: Homo sapiens, NCI-H2052, 168 h; H2052, day 7
Procedure: as §1

H290 = conditions: NCI-H290, 168 h; H290, day 7
Procedure: as §1

HCT116 = conditions: Homo sapiens, HCT-116, 168 h; HCT116, day 7
Procedure: as §1

Hela = conditions: Homo sapiens, 168 h
Procedure: as §1

Huh-7 = conditions: Homo sapiens, 168 h; Huh-7, day 7
Procedure: as §1

MCF7 = conditions: Homo sapiens, 168 h; MCF7, day 7
Procedure: as §1

MSTO-211H = conditions: Homo sapiens, 168 h
Procedure: as §1

OE33 = conditions: Homo sapiens, 168 h; OE33, day 7
Procedure: as §1

SW620 = conditions: Homo sapiens, SW-620, 168 h; SW620, day 7
Procedure: as §1

U-251 = conditions: Homo sapiens, 168 h; U-251, day 7
Procedure: as §1

- IC50 (A549-BRM3): 1000 to 10000 nM
- IC50 (A549): 1000 to 10000 nM
- IC50 (BT474): 1000 to 10000 nM
- IC50 (Colo205): < 1000 nM
- IC50 (Colo357): 1000 to 10000 nM
- IC50 (H2030-BRM3): < 1000 nM
- IC50 (H2052): 1000 to 10000 nM
- IC50 (H290): 1000 to 10000 nM
- IC50 (HCT116): 1000 to 10000 nM
- IC50 (Hela): 1000 to 10000 nM
- IC50 (Huh-7): < 1000 nM
- IC50 (MCF7): 1000 to 10000 nM
- IC50 (SW620): 1000 to 10000 nM
- IC50 (U-251): 1000 to 10000 nM
SMILES: Nc1nccc2c(Br)cc3cc(C(=O)[O-])ccc3c12.[Na+] [Compound 29, Sodium 1-amino-5-bromobenzo[h]isoquinoline-8-carboxylate]
- IC50 (A204): 1000 to 10000 nM
- IC50 (CLL-119): < 1000 nM
- IC50 (MSTO-211H): 1000 to 10000 nM
- IC50 (OE33): < 1000 nM
